# In ChEMBL document CHEMBL1201862, “PubChem BioAssay data set” (2004):
#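 Cells were grown in 96-well plates and exposed to each compound for 48 hours at five concentrations; endpoints were interpolated linearly between bracketing concentrations, or set to the highest concentration if not reached. The concentration for 50% growth inhibition is given as GI50.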 Activity calls are given as the source filed them. Cut-off read from the data, not from the text of the source: active = GI50 up to about 1.1 µM and inactive = higher.
# Legend:
# Test in all cases: NCI anticancer screen, dose series, 48 h
# [1] = tested on: ACHN
# [2] = tested on: COLO 205
# [3] = tested on: HCT-116
# [4] = tested on: HOP-62
# [5] = tested on: NCI-H460
# [6] = tested on: NCI/ADR-RES
# [7] = tested on: OVCAR-5
# [8] = tested on: RPMI-8226
# [9] = tested on: SF-268
# [10] = tested on: SK-MEL-5
# [11] = tested on: SNB-19
# [12] = tested on: SR
# [13] = tested on: T47D
# [14] = tested on: TK-10
# [15] = tested on: UACC-257
# [16] = tested on: HCC 2998
# [17] = tested on: RXF 393
# [18] = tested on: SN12C
# [19] = tested on: SNB-75
# [20] = tested on: UO-31
SMILES,GI50 [1],GI50 [2],GI50 [3],GI50 [4],GI50 [5],GI50 [6],GI50 [7],GI50 [8],GI50 [9],GI50 [10],GI50 [11],GI50 [12],GI50 [13],GI50 [14],GI50 [15],GI50 [16],GI50 [17],GI50 [18],GI50 [19],GI50 [20]
Cc1c(O)c(=O)ccn1CCc1c[nH]c2ccccc12,3.08 µM (inactive),12.6 µM (inactive),6.61 µM (inactive),8.75 µM (inactive),4.11 µM (inactive),3.1 µM (inactive),14.6 µM (inactive),3.69 µM (inactive),2.44 µM (inactive),6.52 µM (inactive),6.81 µM (inactive),5.73 µM (inactive),22.3 µM (inactive),4.81 µM (inactive),3.92 µM (inactive),–,–,–,–,–
Nc1ccc2ccc(-c3ccc[nH]3)nc2n1,> 100 µM (inactive),> 100 µM (inactive),> 100 µM (inactive),> 100 µM (inactive),> 100 µM (inactive),> 100 µM (inactive),> 100 µM (inactive),> 100 µM (inactive),> 100 µM (inactive),> 100 µM (inactive),> 100 µM (inactive),–,> 100 µM (inactive),> 100 µM (inactive),> 100 µM (inactive),> 100 µM (inactive),> 100 µM (inactive),> 100 µM (inactive),> 100 µM (inactive),> 100 µM (inactive)
O=C1C=CC2(C=C1)O[C@H](COCc1ccccc1)[C@@H](COCc1ccccc1)O2,1.58 µM (inactive),1.72 µM (inactive),0.235 µM (active),2.23 µM (inactive),18.8 µM (inactive),1.83 µM (inactive),1.55 µM (inactive),0.42 µM (active),1.64 µM (inactive),1.67 µM (inactive),2.92 µM (inactive),0.251 µM (active),2.04 µM (inactive),1.6 µM (inactive),1.62 µM (inactive),–,0.2 µM (active),1.65 µM (inactive),4.54 µM (inactive),1.57 µM (inactive)
COc1ccc(Cl)cc1NC(=O)O/N=C(\Cl)C(C)C,2.12 µM (inactive),2.19 µM (inactive),7.19 µM (inactive),18.4 µM (inactive),17.1 µM (inactive),5.27 µM (inactive),18.4 µM (inactive),2.06 µM (inactive),21.5 µM (inactive),5.22 µM (inactive),29.5 µM (inactive),–,3.38 µM (inactive),2.55 µM (inactive),17.1 µM (inactive),16.4 µM (inactive),3.76 µM (inactive),8.49 µM (inactive),16.4 µM (inactive),13.8 µM (inactive)
C/C(=N\C1CCCCC1)c1ccccc1O,> 100 µM (inactive),> 100 µM (inactive),> 100 µM (inactive),> 100 µM (inactive),> 100 µM (inactive),> 100 µM (inactive),> 100 µM (inactive),87.5 µM (inactive),> 100 µM (inactive),> 100 µM (inactive),> 100 µM (inactive),> 100 µM (inactive),> 100 µM (inactive),> 100 µM (inactive),> 100 µM (inactive),–,> 100 µM (inactive),> 100 µM (inactive),57.5 µM (inactive),> 100 µM (inactive)
COc1ccc2nc3c([N+](=O)[O-])ccc4c3c(c2c1)N=CN4CCN(C)C,3.66 µM (inactive),2.34 µM (inactive),2.44 µM (inactive),3.17 µM (inactive),2.96 µM (inactive),3.18 µM (inactive),6.7 µM (inactive),2.24 µM (inactive),4.09 µM (inactive),2.53 µM (inactive),6.85 µM (inactive),0.168 µM (active),5.14 µM (inactive),6.34 µM (inactive),3.96 µM (inactive),3.83 µM (inactive),–,2.88 µM (inactive),2.9 µM (inactive),2.46 µM (inactive)
OCCNc1ncnc2c1ncn2C1OC(CO)C(O)C1O (centres undefined),71.3 µM (inactive),> 100 µM (inactive),70.5 µM (inactive),> 100 µM (inactive),87.9 µM (inactive),50.6 µM (inactive),> 100 µM (inactive),85.7 µM (inactive),91.6 µM (inactive),> 100 µM (inactive),> 100 µM (inactive),–,> 100 µM (inactive),71.3 µM (inactive),> 100 µM (inactive),64.9 µM (inactive),> 100 µM (inactive),80.5 µM (inactive),> 100 µM (inactive),57.4 µM (inactive)
